Molecules are shown by their SMILES.

The values below come from US7605156B2, “Methods for the use of inhibitors of cytosolic phospholipase A2” (Wyeth, priority 2001, dated 2009).

The assay addresses T1, cPLA2 (Homo sapiens, UniProt P47712).
T1 sequence (P47712 1-749): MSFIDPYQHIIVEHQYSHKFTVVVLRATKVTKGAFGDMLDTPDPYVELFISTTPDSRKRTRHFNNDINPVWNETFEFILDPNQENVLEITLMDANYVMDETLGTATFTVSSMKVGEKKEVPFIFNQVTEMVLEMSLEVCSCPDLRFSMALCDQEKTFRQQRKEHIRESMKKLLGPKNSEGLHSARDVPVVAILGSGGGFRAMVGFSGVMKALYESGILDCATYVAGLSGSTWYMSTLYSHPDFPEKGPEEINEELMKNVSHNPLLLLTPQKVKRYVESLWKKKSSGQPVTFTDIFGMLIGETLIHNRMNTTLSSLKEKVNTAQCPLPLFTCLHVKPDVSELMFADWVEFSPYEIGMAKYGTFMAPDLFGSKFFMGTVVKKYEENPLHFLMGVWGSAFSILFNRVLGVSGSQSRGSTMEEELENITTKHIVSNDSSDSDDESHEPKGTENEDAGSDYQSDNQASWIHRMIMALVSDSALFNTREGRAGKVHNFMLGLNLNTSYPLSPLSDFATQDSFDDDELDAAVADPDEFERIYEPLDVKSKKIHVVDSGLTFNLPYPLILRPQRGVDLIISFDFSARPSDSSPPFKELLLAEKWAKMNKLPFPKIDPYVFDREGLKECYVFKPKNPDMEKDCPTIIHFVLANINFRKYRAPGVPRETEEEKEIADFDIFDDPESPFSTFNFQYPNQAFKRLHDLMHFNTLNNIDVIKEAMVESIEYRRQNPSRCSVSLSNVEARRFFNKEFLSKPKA
The assay is described as follows: Coumarine assay (hydrolysis of 7-hydroxycoumarinyl 6-heptenoate). Type of assay: biochemical. To be noted: 60 μM 7-hydroxycoumarinyl 6-heptenoate, pH 7.5; read-out: Coumarin IC50.

Regarding `O=C(O)c1ccc(OCCc2c(CCNS(=O)(=O)c3c(Cl)cc(Cl)cc3Cl)n(C(c3ccccc3)c3ccccc3)c3ccc(Cl)cc23)cc1` [Example 161, 4-{2-[1-benzhydryl-5-chloro-2-(2-{[(2,4,6-trichlorophenyl)sulfonyl]amino}ethyl)-1H-indol-3-yl]ethoxy}benzoic acid], the concentration for half-maximal inhibition (IC50) (commonly the concentration that gives 50% inhibition) was found to be 320 nM. Take `O=C(O)c1ccc(CCCc2c(CCNS(=O)(=O)c3cccc(C(F)(F)F)c3)n(C(c3ccccc3)c3ccccc3)c3ccc(Cl)cc23)cc1` [Example 218, 4-(3-{1-Benzhydryl-5-chloro-2-[2-({[3-(trifluoromethyl)phenyl]sulfonyl}amino)ethyl]-1H-indol-3-yl}propyl)benzoic acid]: the half-inhibitory concentration (IC50) is 140 nM. For `O=C(O)c1ccc(OCCc2c(CCNS(=O)(=O)c3ccccc3-c3ccccc3)n(C(c3ccccc3)c3ccccc3)c3ccc(Cl)cc23)cc1` [Example 164, 4-[2-(1-benzhydryl-2-{2-[(1,1′-biphenyl-2-ylsulfonyl)amino]ethyl}-5-chloro-1H-indol-3-yl)ethoxy]benzoic acid] the value was 200 nM; for `O=C(O)c1ccc(OCCc2c(CCNS(=O)(=O)c3ccc(C(F)(F)F)cc3)n(C(c3ccccc3)c3ccccc3)c3ccc(Cl)cc23)cc1` [Example 229, 4-(2-{1-benzhydryl-5-chloro-2-[2-({[4-(trifluoromethyl)phenyl]sulfonyl}amino)ethyl]-1H-indol-3-yl}ethoxy)benzoic acid], 500 nM; for `CC(C)C1CCCN1CCS(=O)(=O)NCCc1c(CCOc2ccc(C(=O)O)cc2)c2cc(Cl)ccc2n1C(c1ccccc1)c1ccccc1` (stereo not shown) [Example 252, 4-(2-{1-benzhydryl-5-chloro-2-[2-({[2-(2-isopropylpyrrolidin-1-yl)ethyl]sulfonyl}amino)ethyl]-1H-indol-3-yl}ethoxy)benzoic acid], 730 nM. Next, `O=S(=O)(NCCc1c(CCOc2ccc(-c3nn[nH]n3)cc2)c2cc(Cl)ccc2n1C(c1ccccc1)c1ccccc1)c1ccccc1Cl` [Example 193, N-[2-(1-benzhydryl-5-chloro-3-{2-[4-(2H-tetrazol-5-yl)-phenoxy]-ethyl}-1H-indol-2-yl)-ethyl]-2-chlorobenzenesulfonamide]: 1800 nM. `Cc1ccc(S(=O)(=O)NCCc2c(CCCc3ccc(C(=O)O)cc3)c3cc(Cl)ccc3n2C(c2ccccc2)c2ccccc2)cc1Cl` [Example 261, 4-{3-[1-benzhydryl-5-chloro-2-(2-([(3-chloro-4-methylphenyl)sulfonyl]amino}ethyl)-1H-indol-3-yl]propyl}benzoic acid]: the IC50 stood at 250 nM.

With `CSc1ccccc1S(=O)(=O)NCCc1c(CCCc2ccc(C(=O)O)cc2)c2cc(Cl)ccc2n1C(c1ccccc1)c1ccccc1` [Example 238], the IC50 worked out at 250 nM.

Turning to `Cc1nc(-c2ccc(S(=O)(=O)NCCc3c(CCCc4ccc(C(=O)O)cc4)c4cc(Cl)ccc4n3C(c3ccccc3)c3ccccc3)s2)cs1` [Example 176, 4-(3-{1-benzhydryl-5-chloro-2-[2-({[5-(2-methyl-1,3-thiazol-4-yl)thien-2-yl]sulfonyl}amino)ethyl]-1H-indol-3-yl}propyl)benzoic acid], the half-inhibitory concentration (IC50) was 400 nM.

As to `O=C(O)c1ccc(OCCc2c(CCNS(=O)(=O)c3cccc(-c4ccccc4)c3)n(C(c3ccccc3)c3ccccc3)c3ccc(Cl)cc23)cc1` [Example 207, 4-[2-(1-benzhydryl-2-{2-[(1,1′-biphenyl-3-ylsulfonyl)amino]ethyl}-5-chloro-1H-indol-3-yl)ethoxy]benzoic acid], the IC50 is 1400 nM. Regarding `Cc1nn(C)c(C)c1S(=O)(=O)NCCc1c(CCOc2ccc(C(=O)O)cc2)c2cc(Cl)ccc2n1C(c1ccccc1)c1ccccc1` [Example 213, 4-{2-[1-benzhydryl-5-chloro-2-(2-{[(1,3,5-trimethyl-1H-pyrazol-4-yl)sulfonyl]amino}ethyl)-1H-indol-3-yl]ethoxy}benzoic acid], the 50% inhibitory concentration (IC50) was 450 nM. For `O=C(O)c1ccc(CCCc2c(CCNS(=O)(=O)c3ccccc3Cl)n(C(c3ccccc3)c3ccccc3)c3ccc(Cl)cc23)cc1` [Example 254, 4-{3-[1-benzhydryl-5-chloro-2-(2-{[(2-chlorophenyl)sulfonyl]amino}ethyl)-1H-indol-3-yl]propyl}benzoic acid] the value was 260 nM. For `O=C(O)c1ccc(CCCc2c(CCNS(=O)(=O)c3c(Cl)cccc3Cl)n(C(c3ccccc3)c3ccccc3)c3ccc(Cl)cc23)cc1` [Example 153, 4-{3-[1-benzhydryl-5-chloro-2-(2-{[(2,6-dichlorophenyl)sulfonyl]amino}ethyl)-1H-indol-3-yl]propyl}benzoic acid] the value was 160 nM; for `CCC1CCCCN1CCS(=O)(=O)NCCc1c(CCOc2ccc(C(=O)O)cc2)c2cc(Cl)ccc2n1C(c1ccccc1)c1ccccc1` (stereo not shown) [Example 249, 4-(2-{1-benzhydryl-5-chloro-2-[2-({[2-(2-ethylpiperidin-1-yl)ethyl]sulfonyl}amino)ethyl]-1H-indol-3-yl}ethoxy)benzoic acid], 670 nM.

For the molecule `COc1cccc(OC)c1S(=O)(=O)NCCc1c(CCCc2ccc(C(=O)O)cc2)c2cc(Cl)ccc2n1C(c1ccccc1)c1ccccc1` [Example 275, 4-{3-[1-benzhydryl-5-chloro-2-(2-{[(2,6-dimethoxyphenyl)sulfonyl]amino}ethyl)-1H-indol-3-yl]propyl}benzoic acid], the IC50 amounted to 240 nM. Next, `O=C(O)c1ccc(CCCc2c(CCNS(=O)(=O)c3ccccc3[N+](=O)[O-])n(C(c3ccccc3)c3ccccc3)c3ccc(Cl)cc23)cc1` [Example 264, 4-{3-[1-benzhydryl-5-chloro-2-(2-{[(2-nitrophenyl)sulfonyl]amino}ethyl)-1H-indol-3-yl]propyl}benzoic acid]: 400 nM; `O=C(O)c1ccc(OCCc2c(CCNS(=O)(=O)Cc3cccc(C(F)(F)F)c3)n(C(c3ccccc3)c3ccccc3)c3ccc(Cl)cc23)cc1` [Example 47, 4-(2-{1-benzhydryl-5-chloro-2-[2-({[3-(trifluoromethyl)benzyl]sulfonyl}amino)ethyl]-1H-indol-3-yl}ethoxy)benzoic acid]: 580 nM. Consider `Cc1c(S(=O)(=O)NCCc2c(CCCc3ccc(C(=O)O)cc3)c3cc(Cl)ccc3n2C(c2ccccc2)c2ccccc2)cnn1-c1ccccc1` [Example 210, 4-{3-[1-benzhydryl-5-chloro-2-(2-{[(5-methyl-1-phenyl-1H-pyrazol-4-yl)sulfonyl]amino}ethyl)-1H-indol-3-yl]propyl}benzoic acid], for which the IC50 worked out at 150 nM. Next, `NCc1ccccc1S(=O)(=O)NCCc1c(CCOc2ccc(C(=O)O)cc2)c2cc(Cl)ccc2n1C(c1ccccc1)c1ccccc1` [Example 163, 4-(2-{2-[2-({[2-(aminomethyl)phenyl]sulfonyl}amino)ethyl]-1-benzhydryl-5-chloro-1H-indol-3-yl}ethoxy)benzoic acid]: 300 nM; `COc1ccc(S(=O)(=O)NCCc2c(CCOc3ccc(C(=O)O)cc3)c3cc(Cl)ccc3n2C(c2ccccc2)c2ccccc2)c([N+](=O)[O-])c1` [Example 197, 4-(2-{1-Benzhydryl-5-chloro-2-[2-(4-methoxy-2-nitro-benzenesulfonylamino)-ethyl]-1H-indol-3-yl}-ethoxy)-benzoic acid]: 400 nM; `Cc1ccccc1S(=O)(=O)NCCc1c(CCOc2ccc(C(=O)O)cc2)c2cc(Cl)ccc2n1C(c1ccccc1)c1ccccc1` [Example 233, 4-{2-[1-benzhydryl-5-chloro-2-(2-{[(2-methylphenyl)sulfonyl]amino}ethyl)-1H-indol-3-yl]ethoxy}benzoic acid]: 340 nM. For `O=C(O)c1ccc(OCCc2c(CCNS(=O)(=O)c3ccc(N4CCOCC4)nc3)n(C(c3ccccc3)c3ccccc3)c3ccc(Cl)cc23)cc1` [Example 179, 4-{2-[1-benzhydryl-5-chloro-2-(2-{[(6-morpholin-4-ylpyridin-3-yl)sulfonyl]amino}ethyl)-1H-indol-3-yl]ethoxy}benzoic acid] the value was 900 nM.

Take `CS(=O)(=O)c1ccc(S(=O)(=O)NCCc2c(CCOc3ccc(C(=O)O)cc3)c3cc(Cl)ccc3n2C(c2ccccc2)c2ccccc2)cc1` [Example 203, 4-(2-{1-benzhydryl-5-chloro-2-[2({[4-(methylsulfony)phenyl]sulfonyl}amino)ethyl]-1H-indol-3-yl}ethoxy)benzoic acid]: the IC50 came to 690 nM. In the case of `N#Cc1ccccc1S(=O)(=O)NCCc1c(CCCc2ccc(C(=O)O)cc2)c2cc(Cl)ccc2n1C(c1ccccc1)c1ccccc1` [Example 155, 4-{3-[1-benzhydryl-5-chloro-2-(2-{[(2-cyanophenyl)sulfonyl]amino}ethyl)-1H-indol-3-yl]propyl}benzoic acid], the IC50 turned out to be 450 nM. As to `COc1ccccc1S(=O)(=O)NCCc1c(CCOc2ccc(C(=O)O)cc2)c2cc(Cl)ccc2n1C(c1ccccc1)c1ccccc1` [Example 235, 4-{2-[1-benzhydryl-5-chloro-2-(2-{[(2-methoxyphenyl)sulfonyl]amino}ethyl)-1H-indol-3-yl]ethoxy}benzoic acid], the half-maximal inhibitory concentration (IC50) was found to be 180 nM.
